Laboratory results: patent publication US20070203126A1, “Synergistic Mixtures of O-Phenylphenol and Dazomet” (priority 2002, published 2007)

Test system: artificial bacterial consortium containing approximately equal numbers of six bacterial strains
Test: bacterial growth inhibition dose protocol in synthetic white water (O.D. 650 nm, 4 hours)
Format: cell-based
Settings: for Synergy Index / Synergy Index**: SI<1 synergism; for ppm BCDMH: BCDMH alone or in blend with NaOPP giving 50% inhibition; for ppm BIT: BIT alone or in blend with NaOPP giving 50% inhibition; for ppm BNS: BNS alone or in blend with NaOPP giving 50% inhibition; for ppm DBNPA: DBNPA alone or in blend with NaOPP giving 50% inhibition; for ppm Dithiol: Dithiol alone or in blend with NaOPP giving 50% inhibition
Procedure: The actives were evaluated in synthetic white water with pH values of 5.5 and 8.0. The materials were tested against an artificial bacterial consortium containing approximately equal numbers of six bacterial strains. […] Two of the strains were Kiebsiella pneumoia (ATCC 13883) and Pseudomonas aeruginosa (ATCC 15442). The other four strains were isolated from papermill systems and have been identified as Curtobacterium flaccumfaciens, Burkhlderia cepacia, Bacillus maroccanus, and Pseudomonas glethei. Each strain was inoculated at 37° C. overnight, then suspended in sterile saline. Equal volumes of each strain were then combined to prepare the consortium. The bacterial consortium was distributed into the wells of a microtiter plate in the presence or absence of various concentrations of the active materials. The microtiter plates were incubated at 37° C. Optical density (O.D.) readings at 650 nm were taken initially (t0) and after time 4 hours (t4) of incubation.
The raw data was converted to “bacterial growth inhibition percentages” according to the following formula: % Inhibition=[(a−b)÷a]·100 […]
a=(O.D. of control at tn)−(O.D. of control at t0) b=(O.D. of treatment at tn)−(O.D. of treatment at t0)
The inhibition values can be plotted versus dosage for each active and the particular blend. […] The synergism index (SI) was calculated by the equations described by F. C. Kull, P. C. Eisman, H. D. Sylwestrowicz, and R. L. Mayer (1961), Applied Microbiology 9, 538-541. The values are based on the amount needed to achieve a specified end point. […] Synergy Index (SI)=(QA÷Qa)+(QB÷Qb) […]
QA=quantity of compound A in mixture, producing the end point
Qa=quantity of compound A1 acting alone, producing the end point
QB=quantity of compound B in mixture, producing the end point
Qb=quantity of compound B1 acting alone, producing the end point
If SI is less than 1, synergism exists; if SI is greater than 1, antagonism exists, if SI is equal to 1, an additive effect exists.

[1] = pH 5.5, BCDMH & NaOPP, end point 50% inhibition
[2] = pH 8.0, BCDMH & NaOPP, end point 50% inhibition
[3] = pH 5.5, BIT & NaOPP, end point 50% inhibition
[4] = pH 8.0, BIT & NaOPP, end point 50% inhibition
[5] = pH 5.5, BNS & NaOPP, end point 50% inhibition
[6] = pH 8.0, BNS & NaOPP, end point 50% inhibition
[7] = pH 5.5, DBNPA & NaOPP, end point 50% inhibition
[8] = pH 8.0, DBNPA & NaOPP, end point 50% inhibition
[9] = pH 5.5, DIMTS & NaOPP, end point 50% inhibition
[10] = pH 8.0, DIMTS & NaOPP, Calculated Using 40% Inhibition of Bacterial Growth
[11] = pH 5.5, Dithiol & NaOPP, end point 50% inhibition
[12] = pH 8.0, Dithiol & NaOPP, end point 50% inhibition
[13] = pH 5.5, NaOCl & NaOPP, Calculated Using 30% Inhibition of Bacterial Growth
[14] = pH 5.5, Sulfone & NaOPP, end point 50% inhibition
[15] = pH 8.0, Sulfone & NaOPP, end point 50% inhibition

CC1(C)C(=O)N(Cl)C(=O)N1Br [BCDMH, 1-Bromo-3-chloro-5,5-dimethylhydantoin] was tested, and the “Synergy Index” value [1] was 1.00, the “ppm BCDMH” value (pH 5.5, ppm active) was 14.60 ppm and the “Synergy Index” value [2] was 1.00. The “ppm BCDMH” value (pH 8.0, ppm active) was 34.37 ppm.
In the case of O=c1[nH]sc2ccccc12 [BIT, 1,2-Benzisothiazolin-3-one], the “Synergy Index” value [3] was 1.00, the “ppm BIT” value (pH 5.5, ppm active) was 1.46 ppm and the “Synergy Index” value [4] was 1.00. The “ppm BIT” value (pH 8.0, ppm active) was 2.86 ppm.
O=[N+]([O-])C(Br)=Cc1ccccc1 [BNS, Bromonitrostyrene] was tested, and the “Synergy Index” value [5] was 1.00, the “ppm BNS” value (pH 5.5, ppm active) was 1.19 ppm and the “Synergy Index” value [6] was 1.00. The “ppm BNS” value (pH 8.0, ppm active) was 3.08 ppm.
For N#CC(Br)(Br)C(N)=O [DBNPA, 2,2-Dibromo-3-nitrilopropionamide], the “Synergy Index” value [7] was 1.00, the “ppm DBNPA” value (pH 5.5, ppm active) was 1.69 ppm and the “Synergy Index” value [8] was 1.00. For the same compound, the “ppm DBNPA” value (pH 8.0, ppm active) was 3.01 ppm.
For Cc1ccc(S(=O)(=O)C(I)I)cc1 [DIMTS, Diiodomethyl-p-tolylsulfone], the “Synergy Index” value [9] was 1.00, the “ppm DIMTS” value (pH 5.5, DIMTS alone or in blend with NaOPP giving 50% inhibition, ppm active) was 31.65 ppm and the “Synergy Index**” value [10] was 1.00. For the same compound, the “ppm DIMTS” value (pH 8.0, DIMTS alone or in blend with NaOPP producing the end point, footnote: 40% Inhibition of Bacterial Growth) was 22.84 ppm.
With O=c1ssc(Cl)c1Cl [Dithiol, 4,5-Dichloro-1,2-dithiol-3-one] the “Synergy Index” value [11] was 1.00, the “ppm Dithiol” value (pH 5.5, ppm active) was 0.073 ppm and the “Synergy Index” value [12] was 1.00. For the same compound, the “ppm Dithiol” value (pH 8.0, ppm active) was 0.16 ppm.
With OCl [NaOCl, Sodium Hypochlorite] the “Synergy Index**” value [13] was 1.00 and the “ppm NaOCl” value (pH 5.5, NaOCl alone or in blend with NaOPP producing the end point, footnote: 30% Inhibition of Bacterial Growth) was 55.27 ppm.
With [Na+].[O-]c1ccccc1-c1ccccc1 [NaOPP, Sodium orthophenylphenate] the “Synergy Index” value [1] was 1.00, the “Synergy Index” value [3] was 1.00 and the “Synergy Index” value [5] was 1.00. The “Synergy Index” value [7] was 1.00, the “Synergy Index” value [9] was 1.00 and the “Synergy Index” value (pH 5.5, Dazomet & NaOPP, end point 50% inhibition) was 1.00. For the same compound, the “Synergy Index” value [11] was 1.00, the “Synergy Index” value (pH 5.5, Iso & NaOPP, end point 50% Inhibition) was 1.00 and the “Synergy Index**” value [13] was 1.00. The “ppm NaOPP” value (pH 5.5, NaOPP alone or in blend with BCDMH giving 50% inhibition, ppm active) was 78.40 ppm, the “ppm NaOPP” value (pH 5.5, NaOPP alone or in blend with BIT giving 50% inhibition, ppm active) was 84.96 ppm and the “ppm NaOPP” value (pH 5.5, NaOPP alone or in blend with BNS giving 50% inhibition, ppm active) was 90.47 ppm. The “ppm NaOPP” value (pH 5.5, NaOPP alone or in blend with DBNPA giving 50% inhibition, ppm active) was 88.38 ppm, the “ppm NaOPP” value (pH 5.5, NaOPP alone or in blend with DIMTS giving 50% inhibition, ppm active) was 84.10 ppm and the “ppm NaOPP” value (pH 5.5, NaOPP alone or in blend with Iso giving 50% Inhibition, ppm active) was 82.73 ppm. For the same compound, the “ppm NaOPP” value (pH 5.5, NaOPP alone or in blend with NaOCl producing the end point, footnote: 30% Inhibition of Bacterial Growth) was 54.92 ppm, the “ppm NaOPP” value (pH 5.5, NaOPP alone or in blend with Sulfone giving 50% inhibition, ppm active) was 56.78 ppm and the “Synergy Index” value [14] was 1.00. For the same compound, the “Synergy Index” value [2] was 1.00, the “Synergy Index” value [4] was 1.00 and the “Synergy Index” value [6] was 1.00. For the same compound, the “Synergy Index” value [8] was 1.00, the “Synergy Index**” value [10] was 1.00 and the “Synergy Index” value (pH 8.0, Dazomet & NaOPP, end point 50% inhibition) was 1.00. The “Synergy Index” value [12] was 1.00, the “Synergy Index” value (pH 8.0, Iso & NaOPP, end point 50% Inhibition) was 1.00 and the “ppm NaOPP” value (pH 8.0, NaOPP alone or in blend with BIT giving 50% inhibition, ppm active) was 116.41 ppm. For the same compound, the “ppm NaOPP” value (pH 8.0, NaOPP alone or in blend with BNS giving 50% inhibition, ppm active) was 123.16 ppm, the “ppm NaOPP” value (pH 8.0, NaOPP alone or in blend with DBNPA giving 50% inhibition, ppm active) was 137.13 ppm and the “ppm NaOPP” value (pH 8.0, NaOPP alone or in blend with DIMTS producing the end point, footnote: 40% Inhibition of Bacterial Growth) was 97.74 ppm. For the same compound, the “ppm NaOPP” value (pH 8.0, NaOPP alone or in blend with Dazomet giving 50% inhibition, ppm active) was 158.32 ppm, the “ppm NaOPP” value (pH 8.0, NaOPP alone or in blend with Dithiol giving 50% inhibition, ppm active) was 132.71 ppm and the “ppm NaOPP” value (pH 8.0, NaOPP alone or in blend with Iso giving 50% Inhibition, ppm active) was 114.14 ppm. For the same compound, the “ppm NaOPP” value (pH 8.0, NaOPP alone or in blend with Sulfone giving 50% inhibition, ppm active) was 67.8 ppm and the “Synergy Index” value [15] was 1.00.
O=S(=O)(C(Cl)(Cl)Cl)C(Cl)(Cl)Cl [Sulfone, Bis(trichlormethyl)sulfone] was tested, and the “Synergy Index” value [14] was 1.00, the “ppm Sulfone” value (pH 5.5, Sulfone alone or in blend with NaOPP giving 50% inhibition, ppm active) was 1.154 ppm and the “Synergy Index” value [15] was 1.00. The “Ppm Sulfone” value (pH 8.0, Sulfone alone or in blend with NaOPP giving 50% inhibition, ppm active) was 1.34 ppm.
